Experimental data: patent US20030162759A1, “Aldosterone blocker therapy to prevent or treat inflammation-related disorders” (priority 2000, published 2003)
“And” between values parts separate entries of the source, which are not always exact repeats. Equal entries are not always repeated. “Also recorded” adds a separate entry of the source.

Assays:
Format in all cases: in vivo, rat
[1] = tested on: angiotensin II infused rats; assay: Assay A angiotensin II infusion model: heart histology (coronary vascular inflammation, myocardial injury); details: for Vascular inflammation and myocardial injury in the heart: angiotensin II infused rats, aldosterone given to adrenalectomized rats
aldosterone infused rats = assay: Assay B aldosterone infusion model: heart histology (vascular inflammatory lesions, myocardial injury); details: saline-drinking, uni-nephrectomized rats, 4 weeks, eplerenone 100 mpk p.o.
Experimental: Assay B: In vivo Aldosterone Infusion Model Male Sprague Dawley rats (n=39; BW=250 g) […] Uni-nephrectomy performed during implantation of mini-pumps 2. Aldosterone (0.75 mg/hr, sc via aizet minipump) 2. […] 1. […] Sacrifice after 4 weeks. Hearts were harvested and divided by half through a transverse section at the mid-ventricles: The upper half was stored into formalin. The bottom part was snap-frozen in liquid nitrogen for biochemical analysis. Hearts were stained with hematoxylin&eosin and the collagen specific dye picro-sirius red and were analyzed for determination of interstitial collagen volume fraction and morphologic abnormalities (i.e. necrosis, vascular injury).

[2] = tested on: aldosterone + salt treated rats; assay: Assay C: myocardial histopathology, semi-quantitative injury score 0 to 4; details: for Myocardial Necrosis (0-4), Mean: group mean
Experimental: The procedure of Assay B was expanded upon in a further study. […] Myocardial tissue from animals in each treatment group was examined after 7, 14, or 30 days of treatment. […] Lesions were preceded by the expression and progressive upregulation of proinflammatory molecules. […] Prior to surgery the animals were individually weighed and placed in one of the following groups: […] Potassium chloride supplementation was added to the saline solution in order to prevent the potential hypokalemia associated with aldosterone excess. […] Louis, Mo.) was inserted subcutaneously at the nape of the neck. Aldosterone was administered at a dose of […]. […] Animals were sacrificed from each group (n=8-13) after 7, 14, or 30 days of treatment. Following exsanguination, hearts and kidneys were isolated, removed, rinsed in cold phosphate-buffered saline, and blotted dry. […] The equatorial regions of the heart were routinely processed into paraffin with an automated tissue processor (Hypercenter XP, Shandon/Lipshaw Inc., Pittsburgh, Pa.) and embedded into fresh paraffin apical side down (Shandon Embedding Center, Shandon/Lipshaw Inc.). […] Ten m sections were stained with the collagen specific stain, Picrosirius Red F3BA (Saturated Picric Acid (Sigma Chemical, St. […] Waterbury, Conn.) (6). Mounted tissues were hydrated with water. […] Slides were coverslipped with #1 cover glass using Permount Histological Mounting Media (Fisher Scientific). Two slides mounted with 5 m sections were cut for each animal. One slide was processed for H&E staining and one for Periodic Acid Schiff (PAS) staining. The H&E and PAS were used for pathological scoring of the hearts. Semi-quantification of myocardial injury was performed as described previously with minor modifications (7). Briefly, a scale from 0 to 4 was used to score the level of myocardial injury. A score of 0 represented no damage. […] Myocardial necrosis was defined as the presence of necrotic changes in cardiomyocytes such as nuclear pyknosis or karyolysis, non-contracting marginal wavy fibers and hypereosinophilia of the cytoplasm, or clear evidence of destruction of the cardiomyocyte membrane.

[3] = tested on: Monocyte Chemoattractant Protein-1 (MCP-1); assay: Assay C: MCP-1 relative mRNA expression in heart (TaqMan); details: for MCP1, Mean / MCP1: mRNA; for MCP1, Mean: group mean; for MCP1: individual rats; for MCP-1 mRNA expression in myocardium: time course 7, 14, 30 days, eplerenone 100 mg/kg/day
Experimental: The procedure of Assay B was expanded upon in a further study. […] Myocardial tissue from animals in each treatment group was examined after 7, 14, or 30 days of treatment.
Potassium chloride supplementation was added to the saline solution in order to prevent the potential hypokalemia associated with aldosterone excess.
At the time of the surgery, an Alzet 2002 osmotic minipump (Alza Corp., Palo Alto, Calif.) containing either vehicle (9% ethanol/87% propylene glycol/4% dH2O) or 1.0 mg/mL d-aldosterone (Sigma Chemical, St. Louis, Mo.) was inserted subcutaneously at the nape of the neck. Aldosterone was administered at a dose of 0.75 g/hour. […] Animals were sacrificed from each group (n=8-13) after 7, 14, or 30 days of treatment.
The fluorogenic 5′-nuclease assay (TaqMan PCR) using Applied Biosystems' 7700 Sequence Detection System (Applied Biosystems, Foster City, Calif.) allowed for real time detection/quantitation of a specific gene by monitoring the increase in fluorescence of a gene-specific, dye-labeled oligonucleotide probe. Probes for target and reference genes were labeled at the 5′-end with a 6-carboxyfluorescein (6FAM) reporter dye and at the 3′-end with a 6-carboxy-N,N,N′,N′-tetramethylrhodamine (TAMRA) quencher dye. When the probe was annealed to the target gene, fluorescence of 6FAM was prevented by the close proximity of TAMRA. The exonuclease activity of Taq polymerase released the dyes from the oligonucleotide probe by displacing the probe from the target sequence resulting in fluorescence excitation in direct proportion to the amount of target message present. Data analysis was performed using the Sequence Detection System software from Applied Biosystems.
All primers and probes were designed using Primer Express software supplied with the 7700 Sequence Detection System and synthesized by Applied Biosystems. Standard curves using 5-fold dilutions of total RNA (from 200 ng to 320 pg) were performed to determine the efficiency of each primer/probe set in the TaqMan reaction prior to the analysis of the experimental samples. Primer/probe sets were designed from known sequences of rat genes to be analyzed. All target gene values were normalized to a reference gene, constitutively expressed cyclophilin. Primer/probe set sequences can be found in Table 8.
RNA was extracted from frozen (−80° C.) rat heart tissue using the Totally RNA Isolation Kit (Ambion, Inc., Austin, Tex.). Tissue was crushed using a stainless steel mortar and pestle, which had been chilled to −80° C. and transferred to a dounce homogenizer (Kontes, Vineland, N.J.) containing 3-10 mL cold denaturation buffer. Tissue was homogenized and transferred to a sterile, 15 mL polypropylene centrifuge tube. An equal volume of phenol:chloroform:isoamyl alcohol (25:24:1) was added, samples were shaken vigorously for 1 min, and incubated on ice for at least 15 min. Samples were centrifuged for 30 min at 10,000 g. The aqueous phase was removed, 1/10 volume of a sodium acetate solution (3.0 M NaOAc pH 4.5) was added, samples were shaken or inverted for 10 seconds, and acid-phenol (premixed with isoamyl alcohol):chloroform (5:1, Ambion, Inc.) was added at an volume equivalent to the starting sample volume. Samples were shaken vigorously for 1 min, followed by a 15-min incubation on ice, and centrifuged for 30 min at 10,000 g. The aqueous phase removed and placed in a clean polypropylene tube. An equal volume of isopropanol (Sigma, St. Louis, Mo.) was added and the samples were mixed and incubated overnight at −20° C. The samples were centrifuged for 30 min at 10,000 g, the supernatant was removed and the RNA pellet was resuspended in DNAse/RNAse-free water. Samples were frozen at −80° C. for at least 2 hours, thawed on wet ice, and diluted for quantitation.

Compound: C[C@]12CCC(=O)C=C1CC[C@@H]1[C@@H]2[C@@H](O)C[C@]2(C=O)[C@@H](C(=O)CO)CC[C@@H]12 [aldosterone]
- Vascular inflammation and myocardial injury in the heart [1]: restored the severe coronary and myocardial inflammation and injury
- Vascular inflammatory changes / myocardial injury (aldosterone infused rats): severe vascular inflammatory lesions
- Myocardial Necrosis (0-4) ([2]; Table 9.14, 7-day protocol, score 0-4, group Mean): 0.0
- Myocardial Necrosis (0-4) ([2]; Table 9.14, 7-day protocol, score 0-4, individual rats): 0.0
- Myocardial Necrosis (0-4), Mean ([2]; 14 days of treatment): 0.8
- Myocardial Necrosis (0-4), Mean ([2]; 30 days of treatment): 2.0
- Myocardial Necrosis (0-4) ([2]; mean ± SEM after 7 days of treatment, eplerenone 100 mg/kg/day): 0.0 ± 0.0
- MCP1, Mean ([3]; 14 days of treatment): 2.76 AU
- MCP1, Mean ([3]; 30 days of treatment): 4.54 AU
- MCP1 ([3]; 7 days of treatment, listed as Aldosterone + salt): 2.40 AU
- MCP1 ([3]; 14 days of treatment, listed as Aldosterone + salt): 2.50 AU
- MCP1 ([3]; 30 days of treatment, listed as Aldosterone + salt): 2.30 AU
- MCP-1 mRNA expression in myocardium [3]: significantly increased

Compound: COC(=O)[C@@H]1CC2=CC(=O)CC[C@]2(C)[C@@]23O[C@@H]2C[C@@]2(C)[C@@H](CC[C@@]24CCC(=O)O4)[C@H]13 [eplerenone, Pregn-4-ene-7,21-dicarboxylic acid, 9,11-epoxy-17-hydroxy-3-oxo-, γ-lactone, methyl ester, (7α, 11α, 17β) -]
- Vascular inflammation and myocardial injury in the heart [1]: prevention by eplerenone (epoxymexrenone) of vascular inflammation in the heart
- Animals with vascular inflammatory lesions in the coronary arteries ([1]; out of ten animals per group, angiotensin II/salt, 4 weeks, eplerenone 100 mpk): only one of the ten
- Vascular inflammatory changes / myocardial injury (aldosterone infused rats): completely prevented the vascular inflammatory changes; also recorded: prevention by eplerenone of myocardial injury
- Myocardial injury (vascular and myocardial damage, histopathology) ([2]; 7, 14, 30 days, eplerenone 100 mg/kg/day): markedly attenuated myocardial injury at all time points; also recorded: markedly attenuated this initial vascular inflammatory response and subsequent myocardial injury
- Myocardial Necrosis (0-4), Mean ([2]; 14 days of treatment): 0.5
- Myocardial Necrosis (0-4), Mean ([2]; 30 days of treatment): 0.0
- Myocardial Necrosis (0-4) ([2]; individual rats, 14 days of treatment, eplerenone 100 mg/kg/day, listed as Eplerenone + aldosterone + salt): 0.0
- Myocardial Necrosis (0-4) ([2]; mean ± SEM after 30 days of treatment, eplerenone 100 mg/kg/day): 0.0 ± 0.0
- MCP1, Mean ([3]; 7 days of treatment): 1.56 AU
- MCP1, Mean ([3]; 30 days of treatment): 2.29 AU
- MCP1 ([3]; 7 days of treatment, listed as Eplerenone + aldosterone + salt): 1.60 AU and 0.85 AU and 0.83 AU and 0.67 AU
- MCP1 ([3]; 14 days of treatment, listed as Eplerenone + aldosterone + salt): 1.60 AU and 1.20 AU
- MCP1 ([3]; 30 days of treatment, listed as Eplerenone + aldosterone + salt): 1.70 AU and 2.10 AU
- MCP-1 mRNA expression in myocardium [3]: significantly reduced; also recorded: inhibition of early time-course expression of myocardial MCP-1
